We go through 34 compounds from patent US8691804B2 (Evotec AG, priority 2008, dated 2014).

For the assay, the target named is T1, human H3 receptors (Homo sapiens, UniProt Q9Y5N1).
T1 construct: host or cells: CHO-K1
T1 sequence (Q9Y5N1 whole entry): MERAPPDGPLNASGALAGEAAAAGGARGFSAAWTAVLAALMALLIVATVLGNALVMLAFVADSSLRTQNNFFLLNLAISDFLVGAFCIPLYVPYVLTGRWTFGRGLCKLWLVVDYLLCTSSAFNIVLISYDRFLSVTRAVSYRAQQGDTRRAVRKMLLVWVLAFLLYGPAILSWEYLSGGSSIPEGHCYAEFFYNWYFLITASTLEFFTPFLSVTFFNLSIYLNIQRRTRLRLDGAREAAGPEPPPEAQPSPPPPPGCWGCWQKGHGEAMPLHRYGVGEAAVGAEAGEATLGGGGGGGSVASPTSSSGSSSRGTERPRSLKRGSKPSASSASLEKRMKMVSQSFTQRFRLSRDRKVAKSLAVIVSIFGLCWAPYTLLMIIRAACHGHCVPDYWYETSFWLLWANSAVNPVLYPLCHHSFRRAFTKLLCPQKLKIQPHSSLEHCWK
Description: cAMP quantification assay for human H3 receptor testing. Type of assay: cell-based. As to conditions: CHO-K1 cells expressing human H3 receptors; inhibition of agonist-induced decrease of cAMP; 100 nM histamine, 10 μM forskolin; read-out: Potency range (IC50 values). Here is the method:
CHO—K1 cell line expressing human H3 receptors were purchased from Euroscreen (Gosselies, Belgium, Cat. no.: ES-392-C)
Human H3 receptor-expressing cell-lines were grown in Ham's F12 [Sigma, Cat. no. N6658], supplemented with 10% FBS [Sigma, Cat. no. F9665], 400 μg/ml G418 [Sigma, Cat. no. N1876] and 250 μg/ml Zeocin [Invitrogen, Cat. no. 46-0509]) according to the protocol provided by Euroscreen.
The assay measures the ability of test compounds to inhibit Histamine receptor agonist-induced decrease of intracellular free cAMP (receptor is Gi coupled).
Specifically, a cAMP quantification assay system from DiscoveRx (cAMP XS+; Cat. no. 90-0075) was used.
For the cAMP assay, confluent cells were detached from the culture vessels with 1× trypsin-EDTA solution (Sigma), and seeded into 384-well Costar plates (white, clear bottom, Cat. no. 3707) at a density of 10,000 cells per well. Cells were seeded in a volume of 50 μl in medium without antibiotics and incubated overnight in a humidified atmosphere with 5% CO2 at 37° C. The cAMP assay was performed according to the protocol provided by DiscoveRx.
The cell culture medium was removed and the cells washed once with PBS (50 μl per well). The plates were emptied by inversion and 7.5 μl/well of compound in PBS (containing 1 mM IBMX and 0.03% BSA) were added and incubated for 30 min at 37° C.
Subsequent 7.5 μl/well specific agonist solution was added and the plates for another 30 min incubated at 37° C.
hH3:100 nM histamine, 10 μM forskolin in PBS (containing 1 mM IBMX and 0.03% BSA)
After the incubation with the agonist, 5 μl/well cAMP XS antibody solution was added followed by 20 μl/well Gal/EII/Lysis (1:5:19)+ED (1:1). The plates were incubated for one hour at room temperature and afterwards 20 μl/well EA reagent was added. The luminescence was developed for approximately three hours at room temperature and the plates were read out using a ‘BMG Novostar’ plate reader.
Test compounds were assayed at 8 concentrations in triplicate. Serial 10-fold dilutions in 100% DMSO were made at a 100-times higher concentration than the final concentration and then diluted with a 2 step protocol in assay buffer to reach the required assay concentrations and 1% DMSO. […]
In the case of `NC(=O)c1cc(OC2CN(C(=O)N3CCCN(C4CCC4)CC3)C2)ccn1` [Example 72, 4-({1-[(4-cyclobutyl-1,4-diazepan-1-yl)carbonyl]azetidin-3-yl}oxy)pyridine-2-carboxamide], the IC50 is less than 100 nM. For `CNC(=O)c1cccc(OC2CN(C(=O)N3CCCN(C4CCC4)CC3)C2)c1` [Example 75, 3-({1-[(4-cyclobutyl-1,4-diazepan-1-yl)carbonyl]azetidin-3-yl}oxy)-N-methylbenzamide] the value was less than 100 nM; for `O=C(N1CCCN(C2CCC2)CC1)N1CC(Oc2ncccc2Cl)C1` [Example 76], less than 100 nM. For `O=C(N1CCCN(C2CCC2)CC1)N1CC(Oc2ccc(Cl)cn2)C1` [Example 77, 1-({3-[(5-chloropyridin-2-yl)oxy]azetidin-1-yl}carbonyl)-4-cyclobutyl-1,4-diazepane], the half-inhibitory concentration (IC50) is less than 100 nM. In the case of `O=C(N1CCCN(C2CCC2)CC1)N1CC(Oc2cncc(Cl)c2)C1` [Example 80, 1-({3-[(5-chloropyridin-3-yl)oxy]azetidin-1-yl}carbonyl)-4-cyclobutyl-1,4-diazepane] it was less than 100 nM; in that of `O=C(N1CCCN(C2CCC2)CC1)N1CC(Oc2ccncc2)C1` [Example 81, 1-cyclobutyl-4-{[3-(pyridin-4-yloxy)azetidin-1-yl]carbonyl}-1,4-diazepane], less than 100 nM. In the case of `COc1cncc(OC2CN(C(=O)N3CCCN(C4CCC4)CC3)C2)c1` [Example 82, 1-cyclobutyl-4-({3-[(5-methoxypyridin-3-yl)oxy]azetidin-1-yl}carbonyl)-1,4-diazepane] it was less than 100 nM; in that of `O=C(C1CC1)N1CCc2nc(OC3CN(C(=O)N4CCCN(C5CCC5)CC4)C3)ccc2C1` [Example 83, 2-({1-[(4-cyclobutyl-1,4-diazepan-1-yl)carbonyl]azetidin-3-yl}oxy)-6-(cyclopropylcarbonyl)-5,6,7,8-tetrahydro-1,6-naphthyridine], less than 100 nM; in that of `O=C(CC1CC1)N1CCc2nc(OC3CN(C(=O)N4CCCN(C5CCC5)CC4)C3)ccc2C1` [Example 84, 2-({1-[(4-cyclobutyl-1,4-diazepan-1-yl)carbonyl]azetidin-3-yl}oxy)-6-(cyclopropylacetyl)-5,6,7,8-tetrahydro-1,6-naphthyridine], less than 100 nM. For `CNC(=O)c1cnccc1OC1CN(C(=O)N2CCCN(C3CCC3)CC2)C1` [Example 85, 4-({1-[(4-cyclobutyl-1,4-diazepan-1-yl)carbonyl]azetidin-3-yl}oxy)-N-methylpyridine-3-carboxamide], the IC50 was less than 100 nM.

For the compound `COc1ccc(OC2CN(C(=O)N3CCCN(C4CCC4)CC3)C2)cc1` [Example 86, 1-cyclobutyl-4-{[3-(4-methoxyphenoxy)azetidin-1-yl]carbonyl}-1,4-diazepane], the concentration for half-maximal inhibition (IC50) was less than 100 nM. In the case of `O=C(N1CCCN(C2CCC2)CC1)N1CC(Oc2ccc(-n3cccn3)cc2)C1` [Example 87, 1-cyclobutyl-4-({3-[4-(1H-pyrazol-1-yl)phenoxy]azetidin-1-yl}carbonyl)-1,4-diazepane] it was less than 100 nM. In the case of `O=C(N1CCCN(C2CCC2)CC1)N1CC(Oc2ccc(OC(F)(F)F)cc2)C1` [Example 88, 1-cyclobutyl-4-({3-[4-(trifluoromethoxy)phenoxy]azetidin-1-yl}carbonyl)-1,4-diazepane] it was less than 100 nM. With `O=C(N1CCCN(C2CCC2)CC1)N1CC(Oc2ccc(OC(F)F)cc2)C1` [Example 89, 1-cyclobutyl-4-({3-[4-(difluoromethoxy)phenoxy]azetidin-1-yl}carbonyl)-1,4-diazepane], the half-inhibitory concentration (IC50) is less than 100 nM. In the case of `O=C(N1CCCN(C2CCC2)CC1)N1CC(Oc2ccc(Cl)cc2F)C1` [Example 90, 1-{[3-(4-chloro-2-fluorophenoxy)azetidin-1-yl]carbonyl}-4-cyclobutyl-1,4-diazepane] it was less than 100 nM.

In the case of `COc1cccc(OC2CN(C(=O)N3CCCN(C4CCC4)CC3)C2)c1` [Example 91, 1-cyclobutyl-4-{[3-(3-methoxyphenoxy)azetidin-1-yl]carbonyl}-1,4-diazepane], the IC50 is less than 100 nM.

In the case of `COc1ccccc1OC1CN(C(=O)N2CCCN(C3CCC3)CC2)C1` [Example 92, 1-cyclobutyl-4-{[3-(2-methoxyphenoxy)azetidin-1-yl]carbonyl}-1,4-diazepane], the IC50 was less than 100 nM.

As for `Cc1ccc2cc(OC3CN(C(=O)N4CCCN(C5CCC5)CC4)C3)ccc2n1` [Example 93, 6-({1-[(4-cyclobutyl-1,4-diazepan-1-yl)carbonyl]azetidin-3-yl}oxy)-2-methylquinoline], the IC50 was less than 100 nM. Regarding `O=C(N1CCCN(C2CCC2)CC1)N1CC(Oc2ccc(C(F)(F)F)nc2)C1` [Example 94, 1-cyclobutyl-4-[(3-{[6-(trifluoromethyl)pyridin-3-yl]oxy}azetidin-1-yl)carbonyl]-1,4-diazepane], the IC50 is less than 100 nM. Turning to `O=C(N1CCCN(C2CCC2)CC1)N1CC(OCc2ccc(F)cc2)C1` [Example 95, 1-cyclobutyl-4-({3-[(4-fluorobenzyl)oxy]azetidin-1-yl}carbonyl)-1,4-diazepane], the IC50 is less than 100 nM. Turning to `COC1CN(C(=O)N2CCCN(C3CCC3)CC2)C1` [Example 96, 1-cyclobutyl-4-[(3-methoxyazetidin-1-yl)carbonyl]-1,4-diazepane], the IC50 is less than 100 nM. Consider `O=C(N1CCCN(C2CCC2)CC1)N1CC(OCc2ccc(Cl)cc2)C1` [Example 97, 1-({3-[(4-chlorobenzyl)oxy]azetidin-1-yl}carbonyl)-4-cyclobutyl-1,4-diazepane], for which the IC50 is less than 100 nM. Consider `N#Cc1ccc(COC2CN(C(=O)N3CCCN(C4CCC4)CC3)C2)cc1` [Example 98, 4-[({1-[(4-cyclobutyl-1,4-diazepan-1-yl)carbonyl]azetidin-3-yl}oxy)methyl]benzonitrile], for which the IC50 was less than 100 nM.

With `C#CCOC1CN(C(=O)N2CCCN(C3CCC3)CC2)C1` [Example 99, 1-cyclobutyl-4-{[3-(prop-2-yn-1-yloxy)azetidin-1-yl]carbonyl}-1,4-diazepane], the IC50 was less than 100 nM. For `O=C1CC(C(=O)N2CCCN(C3CCC3)CC2)C1` [Example 100, 3-[(4-cyclobutyl-1,4-diazepan-1-yl)carbonyl]cyclobutanone] the value was less than 100 nM; for `O=C([C@H]1C[C@@H](O)C1)N1CCCN(C2CCC2)CC1` [Example 101, cis-3-[(4-cyclobutyl-1,4-diazepan-1-yl)carbonyl]cyclobutanol], 100 to 500 nM. In the case of `CNC(=O)c1ccc(O[C@H]2C[C@@H](C(=O)N3CCCN(C4CCC4)CC3)C2)nc1` [Example 102, 6-({cis-3-[(4-cyclobutyl-1,4-diazepan-1-yl)carbonyl]cyclobutyl}oxy)-N-methylpyridine-3-carboxamide] it was less than 100 nM. For `N#Cc1ccc(O[C@H]2C[C@@H](C(=O)N3CCCN(C4CCC4)CC3)C2)cc1` [Example 103, 4-({cis-3-[(4-cyclobutyl-1,4-diazepan-1-yl)carbonyl]cyclobutyl}oxy)benzonitrile], the IC50 is less than 100 nM. With `O=C([C@H]1C[C@@H](Oc2ccc(C(F)(F)F)cn2)C1)N1CCCN(C2CCC2)CC1` [Example 104, 1-cyclobutyl-4-[(cis-3-{[5-(trifluoromethyl)pyridin-2-yl]oxy}cyclobutyl)carbonyl]-1,4-diazepane], the IC50 was less than 100 nM. In the case of `O=C([C@H]1C[C@H](O)C1)N1CCCN(C2CCC2)CC1` [Example 105, trans-3-[(4-cyclobutyl-1,4-diazepan-1-yl)carbonyl]cyclobutanol] it was less than 100 nM.

For `N#Cc1ccc(O[C@H]2C[C@H](C(=O)N3CCCN(C4CCC4)CC3)C2)cc1` [Example 106, 4-({trans-3-[(4-cyclobutyl-1,4-diazepan-1-yl)carbonyl]cyclobutyl}oxy)benzonitrile], the IC50 was less than 100 nM. For `O=C([C@H]1C[C@H](Oc2ccc(C(F)(F)F)cn2)C1)N1CCCN(C2CCC2)CC1` [Example 107, 1-cyclobutyl-4-[(trans-3-{[5-(trifluoromethyl)pyridin-2-yl]oxy}cyclobutyl)carbonyl]-1,4-diazepane] the value was less than 100 nM; for `O=C1CN(C(=O)N2CCCN(C3CCC3)CC2)C1` [Example 108, 1-[(4-cyclobutyl-1,4-diazepan-1-yl)carbonyl]azetidin-3-one], less than 100 nM; for `NC1CN(C(=O)N2CCCN(C3CCC3)CC2)C1` [Example 109, 1-[(4-cyclobutyl-1,4-diazepan-1-yl)carbonyl]azetidin-3-amine], less than 100 nM.

What is called IC50 is the concentration that gives 50% inhibition.
